{"source": "patent US20050065218A1", "about": "“Utilization of alverine, alone or in combination with tricyclic antidepressant or a specific serotonin reuptake inhibitor for the treatment of depression” (priority 2003, published 2005)", "test_system": "Swiss mice CD1", "assay": "forced swim test, Alverine and imipramine administered intraperitoneally to mice (Example 3, first test)", "assay_type": "in vivo", "parameters": "key to Dunnett test vs control group: * indicates a significant difference for p < 0.05 (Dunnett test); ns indicates an insignificant result", "settings": "for immobility time, individual animals / immobility time, Mean: 30 minutes prior to the test; for immobility time, Mean: n = 10", "protocol": "These are Swiss mice CD1 (CD-1® (ICR) IGS (Charles River France) weighing between 25 and 35 g. […] They are placed 15 to 20 per cage, over an acclimatising period of at least 5 days prior to the tests. They are identified by marking on the fur. […] The mice were divided into two test comprising six groups of 10 mice each. For the first test: The first group is the control group: it is treated only by excipient. The second group is treated with imipramine at a dose of 3 mg/kg The third group is treated with Alverine at a dose of 3 mg/kg The fourth group is treated with Alverine at a dose of 3 mg/kg and imipramine at a dose of 3 mg/kg The fifth group is treated with imipramine at a dose of 10 mg/kg […] The doses are expressed in terms of free active substances. The test substances are prepared extemporaneously in a saline solution. The treatments are co-administered 30 minutes prior to the test in a coded and random order intraperitoneally with a volume of 10 ml/kg (5 ml/kg for each administration). Thirty minutes following administration the six groups of mice are subjected to the forced swim test, in a vertical Plexiglas cylinder (height 24 cm, diameter 9 cm) containing water (height 6 cm, temperature 18-22° C.). The total duration of immobility is measured over the last four minutes of the test, six minutes in total. A mouse is deemed immobile when it ceases struggling and floats in the water without movements superfluous to those allowing it to keep its head above water. A drop in immobility time is the reflection of an antidepressant effect. The forced swim test is a pre-clinical behavioural model, which has good predictive validity and is widely employed for determining the efficacy of antidepressant medications (Borsini and Meli, 1988). The results are expressed in total duration of immobility in seconds and as a percentage of variation of the total duration of immobility calculated from the average value of the control group. The statistical significance between two treated groups is determined by using a Student test (P<0.05) The data are analysed using <<SigmaStat>> software.", "key": {"[1]": {"settings": "Alverine 3 mg/kg intraperitoneally"}, "[2]": {"settings": "Alverine 10 mg/kg intraperitoneally"}}, "note": "Several values for one entry are separate records, joined by “and”; a condition that tells them apart may be missing. Equal values may be shown once. Where a name gives a salt, the structure may show the parent alone."}
{"smiles": "CCN(CCCc1ccccc1)CCCc1ccccc1", "note": "[Alverine citrate, N-ethyl-3,3′-diphenyldipropylamine]", "values": [{"measurement": "% of variation of immobility time vs control group", "setting": "[1]", "result": "−30", "unit": "%"}, {"measurement": "Dunnett test vs control group", "setting": "[1]", "result": "ns"}, {"measurement": "immobility time, individual animals", "setting": "[1]", "result": "108 s and 134 s and 113 s and 65 s and 85 s and 73 s and 79 s and 125 s and 95 s and 140 s"}, {"measurement": "immobility time, Mean", "setting": "[1]", "result": 101.7, "unit": "s"}, {"measurement": "% of variation of immobility time vs control group", "setting": "[2]", "result": "−70", "unit": "%"}, {"measurement": "Dunnett test vs control group", "setting": "[2]", "result": "* (* indicates a significant difference for p < 0.05 (Dunnett test))"}, {"measurement": "immobility time, individual animals", "setting": "[2]", "result": "28 s and 10 s and 1 s and 74 s and 22 s and 70 s and 69 s and 67 s and 42 s and 57 s"}, {"measurement": "immobility time, Mean", "setting": "[2]", "result": 44.0, "unit": "s"}, {"measurement": "decrease in the duration of immobilisation as compared to the control group (in words)", "setting": "tested alone at 3 mg/kg intraperitoneally", "result": "statistically insignificant decrease"}]}
